# In publication PMC2788963 (Bioorganic & medicinal chemistry letters, 2009):
# Target: SERT (Rattus norvegicus, UniProt P31652)
# Format: binding
# Conditions: selectivity, ratio of Ki values
# Sequence of SERT (P31652 whole entry): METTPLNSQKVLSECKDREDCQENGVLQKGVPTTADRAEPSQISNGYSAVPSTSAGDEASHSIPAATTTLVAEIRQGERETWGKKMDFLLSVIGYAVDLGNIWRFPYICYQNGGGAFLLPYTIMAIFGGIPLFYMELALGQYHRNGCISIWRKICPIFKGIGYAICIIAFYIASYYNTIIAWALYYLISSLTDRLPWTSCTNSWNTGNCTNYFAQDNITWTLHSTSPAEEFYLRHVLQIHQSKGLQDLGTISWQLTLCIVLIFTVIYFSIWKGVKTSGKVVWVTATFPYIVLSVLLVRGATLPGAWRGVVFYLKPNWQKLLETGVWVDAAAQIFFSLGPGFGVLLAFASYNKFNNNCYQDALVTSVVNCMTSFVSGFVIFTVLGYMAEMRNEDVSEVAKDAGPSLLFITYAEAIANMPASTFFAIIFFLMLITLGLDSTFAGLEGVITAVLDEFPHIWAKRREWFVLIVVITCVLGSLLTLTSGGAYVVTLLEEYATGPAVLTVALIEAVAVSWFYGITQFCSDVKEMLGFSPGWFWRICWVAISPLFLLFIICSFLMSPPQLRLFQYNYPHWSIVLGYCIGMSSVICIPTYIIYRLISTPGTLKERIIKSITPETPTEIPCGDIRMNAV
smiles,measurement,value
Clc1ccc(CO[C@@]2(c3ccc(Cl)cc3)C[C@H]3CC[C@@H](C2)N3)cc1 [7f],NET/SERT,"23,700"
